Experimental data from patent publication US20240270762A1, “PENICILLIN-BINDING PROTEIN INHIBITORS” (priority 2021, published 2024).

Key:
A. baumannii ATCC 17978 = assay: microbe, parasite or virus in culture; format: cell-based; conditions: Acinetobacter baumannii, ATCC17978, read-out: MIC, A. baumannii ATCC 17978
[1] = tested on: P. aeruginosa (ΔmexAB-oprM); assay: Broth microdilution MIC in iron-depleted CAMHB (IDM); format: cell-based; conditions: Pseudomonas aeruginosa, read-out: Minimum inhibitory concentration, P. aeruginosa ΔmexAB-oprM
P. aeruginosa ATCC 27853 = assay: microbe, parasite or virus in culture; format: cell-based; conditions: Pseudomonas aeruginosa, ATCC27853, read-out: Minimum inhibitory concentration, P. aeruginosa ATCC 27853
[2] = target: T1, PBP3 from Acinetobacter baumannii (ATCC 19606) (Acinetobacter baumannii, UniProt A0ABX6CK25); assay: Bocillin-FL fluorescence polarization competition binding, A. baumannii PBP3; conditions: fluorescence polarization competition binding assay using Bocillin-FL; read-out: A. baumannii PBP3 Potency
T1 sequence (A0ABX6CK25 64-610): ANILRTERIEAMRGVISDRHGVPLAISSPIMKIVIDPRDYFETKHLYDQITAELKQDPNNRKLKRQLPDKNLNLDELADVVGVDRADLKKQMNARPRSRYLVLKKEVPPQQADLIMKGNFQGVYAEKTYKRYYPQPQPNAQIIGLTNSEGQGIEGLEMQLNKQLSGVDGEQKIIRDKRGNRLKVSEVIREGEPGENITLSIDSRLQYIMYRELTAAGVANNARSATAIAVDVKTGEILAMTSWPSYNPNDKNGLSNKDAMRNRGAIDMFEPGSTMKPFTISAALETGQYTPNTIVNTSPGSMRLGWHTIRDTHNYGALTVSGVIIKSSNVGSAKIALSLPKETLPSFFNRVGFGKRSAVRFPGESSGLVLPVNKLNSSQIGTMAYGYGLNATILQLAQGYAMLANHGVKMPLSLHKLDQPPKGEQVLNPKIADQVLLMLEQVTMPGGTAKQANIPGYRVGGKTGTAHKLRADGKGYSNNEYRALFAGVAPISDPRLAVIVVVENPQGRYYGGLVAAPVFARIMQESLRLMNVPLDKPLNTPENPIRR
Description: To determine the ability of boronic acid-based test PBP inhibitors to bind Penicillin Binding Proteins (PBPs), Bocillin-FL (fluorescently-labeled penicillin V; ThermoFisher Scientific) was used in a fluorescence polarization (FP) competition binding assay to assess inhibitor binding to PBP3 from Escherichia coli (K-12), PBP3 from Pseudomonas aeruginosa (PAO1), PBP1a and PBP3 from Acinetobacter baumannii (ATCC 19606), and PBP2 from Neisseria gonorrhoeae (FA19). PBPs were cloned and purified as described previously (E. coli PBP3, King, D. T, et al., ACS Infectious Diseases 2015, 1, 175-184; P. aeruginosa PBP3, Han et. al., PNAS 2010, 107 (51), 22002-22007; A. baumannii PBPs, Penwell et. al., Antimicrob. Agents Chemother. 2015, 59 (3), 1680-1689; N. gonorrhoeae PBP2, Singh et. al., J. Biol. Chem. 2019, 294 (38), 14020-14032). To establish assay conditions for competition binding, enzyme titration/saturation binding experiments were initially performed. Bocillin-FL was prepared at 0.2 μM in a buffer comprised of 50 mM Hepes (pH 8.0), 300 mM NaCl and 10% (v/v) glycerol for reactions with E. coli, P. aeruginosa and N. gonorrhoeae PBPs, and 25 mM Tris (pH 8.0), 200 mM NaCl, 10% (v/v) glycerol and 0.005% (v/v) Tween 20 for reactions with A. baumannii PBPs. Saturation binding was performed by mixing 40 μl of PBP solutions ranging in concentrations from 0-24 μM with 40 μl of the 0.2 μM Bocillin-FL solution, in individual wells of a black 384-well microplate. FP was measured immediately upon mixing (Excitation, 490 nm; Emission, 520 nm; g-factor, 0.96), using a Cytation3 (BioTek) microplate reader and measured continuously for up to 120 minutes. The FP response stabilized after 15 minutes for P. aeruginosa and A. baumannii PBP3, 30 minutes for E. coli PBP3 and A. baumannii PBP1a, and less than 1 minute for N. gonorrhoeae PBP2. […] The competition binding assay (80 μl final volume) was validated using beta-lactams and PBPs at final concentrations of: 1.5 μM for E. coli PBP3; 0.75 μM for P. aeruginosa PBP3; 1 μM for A. baumannii PBP1a; 0.2 μM for A. baumannii PBP3; and 0.25 μM for N. gonorrhoeae PBP2. Bocillin-FL was at 0.1 μM (0.05 μM with A. baumannii PBP1a) and beta-lactam concentrations ranged from 0-1,000 μM. E. coli PBP3 was incubated with increasing concentrations of ampicillin in a black 384-well microplate (Corning) for 30 minutes. P. aeruginosa PBP3 was incubated for 15 minutes with aztreonam, whereas A. baumannii PBP1a and PBP3 were incubated for 15 minutes with meropenem, and then Bocillin-FL was added followed immediately by the FP measurement for up to 60 minutes. […] The beta-lactam potency was reported as the concentration of beta-lactam required to reduce the amount of PBP bound-Bocillin-FL by 50% (EC50). […] The EC50 of aztreonam was determined to be <0.5 μM for P. aeruginosa PBP3. […] Binding assays for boronic acid PBP inhibitors were performed in an identical fashion for the respective PBPs.

P. aeruginosa CDC-0054 = assay: microbe, parasite or virus in culture; format: cell-based; conditions: Pseudomonas aeruginosa, CDC0054, read-out: Minimum inhibitory concentration, P. aeruginosa CDC-0054
A. baumannii CDC-0033 = assay: microbe, parasite or virus in culture; format: cell-based; conditions: Acinetobacter baumannii, CDC0033, read-out: MIC, A. baumannii CDC-0033
[3] = tested on: B. humptydooensis ATCC BAA-2767; assay: microbe, parasite or virus in culture; format: cell-based; conditions: Burkholderia humptydooensis, ATCCBAA2767, read-out: Minimum inhibitory concentration (MIC), B. humptydooensis ATCC BAA-2767
A. baumannii 1258916 = assay: microbe, parasite or virus in culture; format: cell-based, Acinetobacter baumannii; conditions: Acinetobacter baumannii, 1258916, read-out: MIC, A. baumannii 1258916
A. baumannii CDC-0036 = assay: microbe, parasite or virus in culture; format: cell-based; conditions: Acinetobacter baumannii, CDC0036, read-out: MIC, A. baumannii CDC-0036
P. aeruginosa CDC-0095 = assay: microbe, parasite or virus in culture; format: cell-based; conditions: Pseudomonas aeruginosa, CDC0095, read-out: Minimum inhibitory concentration, P. aeruginosa CDC-0095
P. aeruginosa CDC-0090 = assay: microbe, parasite or virus in culture; format: cell-based; conditions: Pseudomonas aeruginosa, CDC0090, read-out: Minimum inhibitory concentration, P. aeruginosa CDC-0090
[4] = tested on: B. thailandensis ATCC 700388; assay: microbe, parasite or virus in culture; format: cell-based; conditions: Burkholderia thailandensis, ATCC700388, read-out: Minimum inhibitory concentration (MIC), B. thailandensis ATCC 700388
A. baumannii CDC-0045 = assay: microbe, parasite or virus in culture; format: cell-based; conditions: Acinetobacter baumannii, CDC0045, read-out: MIC, A. baumannii CDC-0045
A. baumannii CDC-0083 = assay: microbe, parasite or virus in culture; format: cell-based; conditions: Acinetobacter baumannii, CDC0083, read-out: MIC, A. baumannii CDC-0083
P. aeruginosa ATCC 35151 = assay: microbe, parasite or virus in culture; format: cell-based; conditions: Pseudomonas aeruginosa, ATCC35151, read-out: Minimum inhibitory concentration, P. aeruginosa ATCC 35151
A. baumannii ATCC 19606 = assay: microbe, parasite or virus in culture; format: cell-based; conditions: Acinetobacter baumannii, ATCC19606, read-out: MIC, A. baumannii ATCC 19606
P. aeruginosa CDC-0110 = assay: microbe, parasite or virus in culture; format: cell-based; conditions: Pseudomonas aeruginosa, CDC0110, read-out: Minimum inhibitory concentration, P. aeruginosa CDC-0110

O=C(O)c1c(F)ccc2c1OB(O)[C@@H](NC(=O)[C@@H](NC(=O)N1CCN(Cc3ccc(O)c(O)c3Cl)C(=O)C1=O)c1ccc(P(=O)(O)O)cc1)C2 (single isomer, unassigned) [Example 161]
< 10 µM: IC50 [2]
2 to 4 µg/mL: MIC [1] | MIC (P. aeruginosa ATCC 27853)
< 1 µg/mL: MIC (A. baumannii ATCC 17978) | MIC (P. aeruginosa CDC-0054) | MIC [3] | MIC (P. aeruginosa CDC-0095) | MIC [4] | MIC (P. aeruginosa ATCC 35151) | MIC (A. baumannii ATCC 19606) | MIC (P. aeruginosa CDC-0110)
> 128 µg/mL: MIC (A. baumannii 1258916) | MIC (A. baumannii CDC-0036) | MIC (P. aeruginosa CDC-0090) | MIC (A. baumannii CDC-0045)
8 to 16 µg/mL: MIC (A. baumannii CDC-0033) | MIC (A. baumannii CDC-0083)
